From US5608095A, “Alkyl-4-silyl-phenols and esters thereof as antiatherosclerotic agents” (Hoechst Marion Roussel, Inc., priority 1996, dated 1997)
Where two headings read alike, the source gives them in different places.

Legend:
ICAM-1 = test: Cell surface ELISA for ICAM-1 in human umbilical vein endothelial cells (HUVEC), TNF-alpha induced; type: cell-based; conditions: 50 μM, average of two runs, numbers in parentheses represent negative values
Procedure: (§1) Cell Surface ELISA for VCAM-1/ICAM-1
(§2) Proliferating human umbilical vein endothelial cells (HUVEC) or human aortic smooth muscle cells (HASMC) from Clonetics (San Diego, Calif.) were plated onto 96-well plates in 100 μL medium per well at 20,000 cells per cm^2. The cultures were maintained in growth medium (EGM or SMGM2, Clonetics, San Diego, Calif.) for two days prior to addition of cytokines or drugs. Cytokines plus or minus compounds were added for 20 to 24 hours prior to analysis for adhesion molecule levels. Tumor necrosis factor (Genzyme, Cambridge, Mass.) was added to cultures at 500-1000 units/mL. Interleukin-4 (GIBCO-BRL, Gaithersburg, Md.) was added to cultures at 100-200 pg/mL. (Additions were made by transferring 100 [μL of cytokines plus compounds serially diluted on a separate 96-well plate into the plates containing cells. The medium on the cultures was not exchanged prior to addition of effectors). The culture medium was removed, and the monolayers were washed twice with Hanks buffered saline solution (HBSS) at room temperature. The primary antibody (anti-human VCAM-1 from Upstate Biotechnology, Inc., Lake Placid, N.Y. or anti-human ICAM-1 from Immunotech, Inc., Westbrook, Me.) was added to each well (1 μg/mL in HBSS plus 5% newborn calf serum, GIBCO-BRL, Gaithersburg, Md.) and incubated at 37° C. for 1 hr. The wells were washed twice with HBSS, then 100 μL of a 1/1000 dilution of goat anti-mouse IgG conjugated to horse radish peroxidase (BioRad, Hercules, Calif.) in HBSS plus 5% newborn calf serum was added to each well and incubated for 1 hr at 37° C. The wells were washed three times with HBSS, then 100 μL of TMB substrate (BioRad, Hercules, Calif.) was added to each well. The reaction was stopped after blue color developed by addition of 50 μL of 1N H2 SO4. Absorbance is measured at 450 nm with a plate reader. IC50 values were determined from curves of absorbance values obtained from serial dilutions of compounds (dissolved in dimethyl sulfoxide).
(§3) The IC50 value is defined as the drug concentration that inhibits the cytokine-induced adhesion molecule expression by 50%. Maximal values for adhesion molecule expression in cytokine-induced cultures was […] the basal level of adhesion molecule expression (minus cytokines) in the cultures to determine the level of induction. […] Each drug concentration was tested in quadruplicate wells. Single point tests of compounds at 50 μM were assayed as described for IC50 determinations, except that the data represent the level of inhibition without correction for basal expression. (Basal adhesion molecule expression was 10-20% of the total induced expression). Table 1 summarizes the ability of various compounds of this invention to inhibit VCAM-1 using human aortic smooth muscle cells (HASMC). In these experiments, the cells were coincubated with interleukin-4 and the compounds listed about 20 hr before assaying cell surface VCAM-1 levels. Each column represents a separate experiment.
(§4) In these experiments, the cells were coincubated with tumor necrosis factor-alpha along with the indicated compounds about 20 to 24 hr before assaying cell surface adhesion molecule expression.

VCAM-1 = test: Cell surface ELISA for VCAM-1 in human umbilical vein endothelial cells (HUVEC), TNF-alpha induced; type: cell-based; conditions: 50 μM, average of three runs
Procedure: as §1, §2, §3, §4

[1] = HPLC quantitation of compound and metabolite concentration in rat serum and liver; type: in vivo, male Sprague-Dawley rats; conditions: 4 days; for concentration at 96 h: po
Text: (§5) A typical experiment consisted of 4-6 groups of rats (N=5 per group) with 1 group being a control which received no MDL compound and the other groups being treated with 0.3% MDL compound. Some of the compounds were either repeated at 0.3% or evaluated again at the lower dose of 0.1%. Male Sprague-Dawley rats, 50-100 g, (Harlan Laboratories, Indianapolis, Ind.) were housed in groups of 5, fed ad libitum water and Purina Rodent chow (#5002) with or without MDL compound as a dietary admixture for 4 days. Dietary admixtures (0.3%) were made by mixing 1.2 grams of an MDL compound with 400 grams of Purina rodent chow (#5002). The MDL compound was mixed with approximately 50 grams of food using a mortar and pestle. This was added to the remainder of the food and mixed for 3 hours on a rotary mixer. In the morning of day 5, non-fasted rats were anesthetized with carbon dioxide, and blood was collected by cardiac puncture. Rats were sacrificed by cervical dislocation. Body weights and liver weights were recorded in grams. Food consumption was recorded as grams.cndot.day^-1.cndot.rat^-1. Deaths were recorded as mortality. Aliquots of fresh serum were used for clinical chemistries, thiobarbituric acid reactive substances (TBARS) and conjugated diene measurements. Aliquots of serum (~0.5mL) and whole livers were frozen at -20° C. for compound and metabolite concentration determination at a later time.
Serum and liver concentrations of parent compound and the metabolites, bisphenol and diphenoquinone, were determined by reverse phase HPLC using a Waters 990 Powerline system. Livers (1 gram samples) were homogenized with 5.0 mL PBS, pH 7.4, using a Polytron tissue homogenizer at setting 5 for 20-30 seconds. Serum or liver homogenates were extracted as follows: 100μL of either serum or homogenate were added to 2.0 mL diethyl ether:ethanol (3:1) while vortexing the tube. The sample tubes were capped and centrifuged for 10 min at 5° C. at 3500 rpm in a Beckman GPKR centrifuge with a GH 3.7 rotor. The supernatants were transferred to clean tubes and dried under N2. Samples were reconstituted with 200 μL of acetonitrile:hexane:0.1M ammonium acetate (90:6.5:3.5, by vol.). Then, 100 μL were injected onto a Waters Deltapak C18-300 Å column, and eluted with an 83% acetonitrile:17% water mobile phase at a flow rate of 1.5 mL/min. Absorbances at the wavelengths of 240, 254, and 420 nm were recorded. Compound concentrations were calculated from known quantities of authentic parent compounds after correction for recovery; the range of recovery from spiked samples was 40 to 100%. The lowest detectable limit for this class of compounds was ~0.5 μg/mL. […]. Concentrations were calculated as μg/mL of serum and μg/g of liver.

[2] = Animal parameters (food, body weight, liver weight, mortality) in rats; type: in vivo, male Sprague-Dawley rats; conditions: 4 days; for mortality at 96 h: in vivo, po, read-out: mortality (deaths per group); for mortality at 96 h / body wt., percent of control / lw/bw (liver weight/body weight), percent of control: rat
Text: as §5

[3] = rat liver, diet 0.3%, read-out: Liver Parent = parent compound concentration
[4] = rat serum, diet 0.3%, read-out: Serum Parent = parent compound concentration

Compound	ICAM-1 % inh. (ICAM-1)	VCAM-1 % inh. (VCAM-1)	Liver Parent = parent compound concentration ([1]; rat liver, diet 0.3%)	Serum Parent = parent compound concentration ([1]; rat serum, diet 0.3%)	food (grams eaten per day per rat), percent of control ([2]; diet 0.3%)	mortality at 96 h ([2]; diet 0.3%)	body wt., percent of control ([2]; diet 0.3%)	lw/bw (liver weight/body weight), percent of control ([2]; diet 0.3%)	concentration at 96 h [1, 3]	concentration at 96 h [1, 4]	Liver Parent = parent compound concentration ([1]; rat liver, diet 0.1%)	Serum Parent = parent compound concentration ([1]; rat serum, diet 0.1%)	food (grams eaten per day per rat), percent of control ([2]; diet 0.1%)	mortality at 96 h ([2]; diet 0.1%)	body wt., percent of control ([2]; diet 0.1%)	lw/bw (liver weight/body weight), percent of control ([2]; diet 0.1%)	concentration at 96 h ([1]; rat liver, diet 0.1%, read-out: Liver Parent = parent compound concentration)	concentration at 96 h ([1]; rat serum, diet 0.1%, read-out: Serum Parent = parent compound concentration)
CC(C)(C)c1cc(OC[Si](C)(C)c2ccccc2)cc(C(C)(C)C)c1OC(=O)CCC(=O)O [MDL 103,076, 2,6-Di-t-butyl-4-[(dimethylphenylsilyl)methyloxy]phenol succinic acid ester]	76%	7.3%	0 µg/g	0 µg/mL	93%	0%	105%	110%										
CC(C)(C)c1cc(SC[Si](C)(C)c2ccccc2)cc(C(C)(C)C)c1OC(=O)CCC(=O)O [MDL 103,141, 2,6-Di-t-butyl-4-[(dimethylphenylsilyl)methylthio]phenol sucinic acid ester]	79.5%	1.3%	0 µg/g	0 µg/mL	87%	0%	91%	96%										
CC(=O)Oc1c(C(C)(C)C)cc(OC[Si](C)(C)c2ccccc2)cc1C(C)(C)C [MDL 103,377, 2,6-Di-t-butyl-4-[(dimethylphenylsilyl)methyloxy]phenol acetic acid ester]		18.3%			82%	0%	97%	105%	22200 ng/g	7.72 µg/mL								
CC(C)(C)c1cc(OC[Si](C)(C)c2ccccc2)ccc1O [MDL 103,491, 2-t-Butyl-4-[(dimethylphenylsilyl)methyloxy]phenol]	80%	12.0%	0 µg/g		89%	0%	100%	130%		3 µg/mL	0 µg/g	0 µg/mL	92%	0%	95%	106%		
CN(C)c1ccc([Si](C)(C)COc2cc(C(C)(C)C)c(O)c(C(C)(C)C)c2)cc1 [MDL 104,556, 2,6-Di-t-butyl-4-[(4-N,N-dimethylaminophenyldimethylsilyl)methyloxy]phenol]	1.5%	33.3%			68%	0%	87%	120%	60300 ng/g	16.3 µg/mL			102%	0%	103%	106%	38700 ng/g	9.2 µg/mL
CC(C)(C)c1cc(OC[Si](C)(c2ccccc2)c2ccccc2)cc(C(C)(C)C)c1O [MDL 104,599, 2,6-Di-t-butyl-4-[(diphenylmethylsilyl)methloxy]phenol]		12.3%			103%	0%	93%	107%	44900 ng/g	28.3 µg/mL								
CC(C)(C)c1cc(OC[Si](C)(C)c2ccccc2)c(C(C)(C)C)cc1O [MDL 104,962, 2,5-Di-t-butyl-4-[(dimethylphenylsilyl)methyloxy]phenol]					74%	0%	95%	103%	43500 ng/g	16.4 µg/mL								
Cc1cc(OC[Si](C)(C)c2ccccc2)c(C)c(C)c1O [MDL 105,314, 2,3,6-Trimethyl-4-[(dimethylphenylsdilyl)methloxy]phenol]	75.5%	10.7%	0.0 µg/g	0.0 µg/mL	109%	0%	111%	118%										
CC(=O)Oc1ccc(OC[Si](C)(C)c2ccccc2)cc1C(C)(C)C [MDL 105,443, 2-t-Butyl-4-[(dimethylphenylsilyl)methyloxy]phenol acetic acid ester]	73.0%	3.0%	0 µg/g	0.0 µg/mL	84%	0%	95%	118%			0 µg/g	0 µg/mL	100%	0%	101%	110%		
COc1ccc([Si](C)(C)COc2ccc(O)c(C(C)(C)C)c2)cc1 [MDL 106,834, 2-t-Butyl-4-[(dimethyl-p-methoxylphenylsilyl)methyloxy]phenol]					91%	0%	95%	132%	2700 ng/g	1.8 µg/mL								
